This is an account of results in PMC11500415, “Chemical inhibition of stomatal differentiation by perturbation of the master-regulatory bHLH heterodimer via an ACT-Like domain” (Nature Communications, 2024).

For one test, the target named is T1, SCRM2-SPCH heterodimer (Arabidopsis thaliana, UniProt Q700C7).
T1 construct: heterodimerization of SCRM with full-length SPCH, MUTE, or FAMA in the context of the plant cells; we performed rBiFC assays using full-length SCRM2; nYFP (N terminus of EYFP, 174 amino acids); cYFP (C terminus of EYFP, 64 amino acids); expressed in transfected cells; host or cells: Nicotiana benthamiana leaves (Agrobacterium infiltration)
T1 sequence (Q700C7 whole entry, one chain of several): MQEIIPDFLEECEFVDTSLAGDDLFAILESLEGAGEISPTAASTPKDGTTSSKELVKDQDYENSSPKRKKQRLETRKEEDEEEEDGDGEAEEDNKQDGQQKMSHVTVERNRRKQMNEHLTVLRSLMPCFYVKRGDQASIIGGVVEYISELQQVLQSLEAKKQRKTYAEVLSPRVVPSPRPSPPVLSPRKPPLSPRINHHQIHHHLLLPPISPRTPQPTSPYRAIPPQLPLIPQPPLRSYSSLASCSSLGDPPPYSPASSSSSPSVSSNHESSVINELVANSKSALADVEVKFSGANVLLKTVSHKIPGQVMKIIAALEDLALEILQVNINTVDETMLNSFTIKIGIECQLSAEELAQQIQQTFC
As to the kind of experiment: Ratiometric BiFC in N. benthamiana leaves. The class given is cell-based. As to conditions: 100 µM. From the text:
For ratiometric BiFC assays, the cDNAs of SPCH, MUTE, and FAMA were cloned into the 35S CaMV promoter-driven destination vector pSPYNE, which contains the N terminus of the EYFP protein (nYFP-174 amino acids), while the cDNA of SCRM and SCRM2 was inserted into pSPYCE, which contains the C terminus of the EYFP protein (cYFP-64 amino acids) (see Supplementary Table 5 for detailed information of the constructs). The constructs were then transformed into Agrobacterium tumefaciens strain GV3101. The Agrobacterium was resuspended in infiltration buffer (10 mM MgCl2, 10 mM 2-(N-morpholino)ethanesulfonic acid [pH 5.6], and 150 µM acetosyringone). Bacterial culture densities were adjusted to a final optical density (OD600) of 1.0, and the cell suspensions were incubated at room temperature for 4 hours prior to infiltration. Equal volumes of cultures carrying the corresponding complementary pair of BiFC constructs (YFPn and YFPc), along with CaMV35S::Histone H2B-mScarlet-I3 and the silencing suppressor plasmid p19 (a gift from Dr. Sir David Baulcombe) were mixed and then co-infiltrated into 4-week-old N. benthamiana leaves. The infiltrated N. benthamiana leaves were incubated at 25 °C for 2 days. Subsequently, leaf discs were cut out and cultured in mock or in liquid 1/2 MS media in mock (DMSO) or 100 µM Stomidazolone for 1 day. Confocal imaging of N. benthamiana leaves was performed using a Leica SP8 confocal microscope using a 20X objective lens (Leica Microsystems), simultaneously capturing YFP (excitation at 518 nm and emission at 530 nm) and mScarlet-I3 (excitation at 569 nm and emission at 600 nm) differential interference contrast channels.

A further test addresses T2, FAMA (Arabidopsis thaliana, UniProt Q56YJ8).
T2 construct: ΔNFAMA (190-414); made in house; host or cells: E. coli BL21
As to the kind of experiment: ITC direct binding. On the set-up: species or system A. thaliana. From the text: (§1) A. thaliana SCRM (1-494), ΔNSPCH (98-364), MUTE (1-202), ΔNFAMA (190-414), MUTEΔC (1-114), MUTER133A_R134A, MUTEE162A_E163A, MUTER133A_R134A_E162A_E163A, SCRM-ACTL (405-494), MUTE-ACTL (114-202), SPCH-ACTL (285-364), FAMA-ACTL (306-414), MUTE_ACTLR133A_R134A, MUTE_ACTLE162A_E163A, MUTE_ACTLR133A_R134A_E162A_E163A were cloned into pGEX-4T-1 vector with an N-terminal GST tag and a thrombin cleavage sequence. For protein expression, the constructs were transformed into E. coli strain BL21. For each transformant, a single colony was selected and incubated in 10 ml LB liquid media. The overnight-incubated E. coli suspensions were transferred to 1 L LB medium and incubated at 37 °C for around 2 h until the OD600 reached 0.4–0.6. The isopropyl β-D-1-thiogalactopyranoside ([…] of final concentration) was added to the cultures and the strains were incubated at 22 °C for a further 18 h. GST-fused proteins were purified using glutathione agarose resin. The soluble portion of the cell lysate was loaded onto a GST-Sepharose column. Nonspecifically bound proteins were removed by washing the column with 20 mM Tris pH 8.0, 200 mM NaCl. The bound GST-fused protein was eluted with 10 mm glutathione and 20 mM Tris pH 8.0, 200 mM NaCl. The GST-fused proteins were exchanged with phosphate-buffered saline buffer, and then the solution was treated with 50 μg of thrombin for 10–12 h at 16 ^οC. The GST portion of the protein was cleaved during thrombin digestion, and then the whole solution was reloaded onto the glutathione S-transferase column to obtain pure protein. The purified proteins were further purified by gel filtration on a Superdex-200 (GE) column using fast protein liquid chromatography and phosphate buffer (pH 7.2) as the eluent. The purity of the protein was checked by SDS-PAGE. For detailed lists of oligo DNA and plasmid information, see Supplementary Tables 5, 6, respectively.
(§2) Binding of the small molecule Stomidazolone (3) to SCRM, MUTE, SPCH, FAMA, MUTEΔC, MUTE_ACTL, SCRM_ACTL, SPCH_ACTL and FAMA_ACTL, MUTER133A_R134A, MUTEE162A_E163A, MUTER133A_R134A_E162A_E163A, as well as SCRM binding to MUTE in the presence and absence of Stomidazolone (3) / AYSJ1059 (5) /AYSJ1061 (6) was characterized at 30 °C using a Malvern PEAQ-ITC microcalorimeter. All the protein samples were dialyzed overnight using PBS buffer containing 2% DMSO and 1 mM DTT. Stomidazolone was dissolved in PBS buffer containing 2% DMSO and 1 mM DTT. Titrations were performed by injecting 1 × 0.5-μL and 12 × 3-μL or 1 × 0.75-μL and 18 × 2-μL or 1 × 0.2-μL and 25 × 1.3-μL aliquots of 1 mM Stomidazolone / AYSJ1059 / AYSJ1061 to 5-30 μM of protein in PBS buffer pH 7.4, containing 2% DMSO and 1 mM DTT. All titrations were carried out at least twice. The raw data were corrected using buffer and protein controls and analyzed using the software supplied by the manufacturer. See Supplementary Table 3 for details.

The target of a further test is T3, MUTE_ACTLE162A_E163A (Arabidopsis thaliana, UniProt Q9M8K6, E162A/E163A).
T3 construct: MUTE-ACTL (114-202); made in house; host or cells: E. coli BL21
T3 sequence (Q9M8K6 114-202 E162A/E163A): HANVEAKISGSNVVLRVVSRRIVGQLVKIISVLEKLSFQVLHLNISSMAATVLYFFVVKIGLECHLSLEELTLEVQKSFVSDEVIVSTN
Nature of the test: ITC direct binding. On the set-up: species or system A. thaliana.
Description: as §1, §2

Another test addresses T4, FAMA_ACTL (Arabidopsis thaliana, UniProt Q56YJ8).
T4 construct: FAMA-ACTL (306-414); GST (N, cleaved yes); made in house; host or cells: E. coli BL21
As to the kind of experiment: ITC direct binding. On the set-up: species or system A. thaliana.
Description: as §1, §2

T4 sequence (Q56YJ8 306-414): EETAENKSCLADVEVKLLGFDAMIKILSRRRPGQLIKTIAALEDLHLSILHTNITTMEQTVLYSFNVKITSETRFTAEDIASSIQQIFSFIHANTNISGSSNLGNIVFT
T2 sequence (Q56YJ8 190-414): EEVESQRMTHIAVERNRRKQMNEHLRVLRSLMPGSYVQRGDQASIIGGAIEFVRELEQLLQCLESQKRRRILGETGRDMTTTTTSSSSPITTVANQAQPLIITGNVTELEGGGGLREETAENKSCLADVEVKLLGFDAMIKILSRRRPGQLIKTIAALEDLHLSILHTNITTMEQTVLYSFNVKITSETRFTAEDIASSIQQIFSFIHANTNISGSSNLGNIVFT

For the compound `O=C1C(c2ccccc2)=NC(NS(=O)(=O)c2ccccc2)(c2ccccc2)N1S(=O)(=O)c1ccccc1` (stereo not shown) [Stomidazolone], at SCRM2-SPCH heterodimer, the “effect on heterodimerization (in words)” value is on record as “abolished”. For the same compound, on FAMA, the “-T△S” value came to 2.4 ± 0.3, the Kd was found to be 80.4 ± 4.1 µM, the “△G” value is reported as -1.8 ± 0.2 and the “△H” value is listed as -4.2 ± 0.2. Moreover, at MUTE_ACTLE162A_E163A (MUTE_ACTL E162A_E163A), the “-T△S” value was 3.1 ± 0.3, the Kd came out at 85.5 ± 5.5 µM, the “△G” value is listed as -4.5 ± 0.2 and the “△H” value is recorded as -7.6 ± 0.5. The “increase in the Kd value versus wild-type MUTE” value at MUTE_ACTLE162A_E163A (authors' response to reviewers, data of the original Fig. S3) is on record as approximately 5 fold. Moreover, at FAMA_ACTL, the “-T△S” value stood at 4.8 ± 0.2, the Kd was determined as 110 ± 13.8 µM and the “△H” value is -8.2 ± 0.5.

In general, Kd refers to the concentration at which binding is half-saturated. A high value points to a looser complex.
